This passage reports TGI results from PubChem BioAssay (NCI).

Molecules are shown by their SMILES.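 The compound was tested at five concentrations on cells cultured in 96-well plates, with a 48-hour exposure period. At the TGI there is no net growth.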

Common to all, as to assay: growth of human tumour cells (NCI), 48 h
Test [1] has as its system OVCAR-3 ovarian.
The subject of test [2] is ACHN renal.
For test [3], the system named is M14 melanoma.
Test [4] concerns OVCAR-5 ovarian.
The subject of test [5] is SK-OV-3 ovarian.
Test [6] deals with NCI-H522 lung.
The subject of test [7] is COLO 205 colon.
The test system of test [8] is PC-3 prostate.
Test [9] has as its system HS 578T breast.
Test [10] concerns MDA-MB-231 breast.

In the case of `CC(C)(C)c1ccnc(N=C2N=C(Nc3cc(C(C)(C)C)ccn3)c3ccccc32)c1`, the TGI in test [1] is 47.4 µM; in test [2], greater than 100 µM; in test [3], greater than 100 µM; in test [4] it was greater than 100 µM; in test [5], 49 µM; in test [6], 44.8 µM. The molecule further yielded a TGI in [7] greater than 100 µM.

Turning to `O=C(C(=C(I)I)c1ccccc1)c1ccccc1`, the TGI in [1] was 42.3 µM; in test [8], greater than 100 µM; in test [2] it was greater than 100 µM; in [3], 73.3 µM; in test [4] it was greater than 100 µM; in [9] it was 43.2 µM. The TGI in test [5] and in test [7] was greater than 100 µM throughout.

`C=C1[C@@H]2CCC3[C@]4(C)C(CC[C@@]5(C)C(=O)O[C@H](O)[C@@H]45)[C@H](O)[C@]3(C2)[C@H]1OC1OC(CO)C(O)C(O)C1O` (some centres not stated): the TGI in [1], in test [8], in test [10], in [2], in test [3] and in test [4] was greater than 50 µM each time. Also, the TGI in test [9], in test [5] and in test [7] was greater than 50 µM in each case.

For the molecule `O=C1CSC(c2c[nH]c3ccccc23)N1c1ccc(Cl)cc1Cl` (configuration not stated), the TGI in test [1], in test [8], in test [10], in test [3], in test [4] and in [5] was greater than 100 µM throughout. For the same molecule, the TGI in test [6] and in test [7] was greater than 100 µM in each case.

Regarding `CN(C)/N=N/c1nc2c(c(=O)n(C)c(=O)n2C)n1CC1CO1` (configuration not stated), the TGI in test [1] was 31.4 µM; in [8] it was 56.4 µM; in test [10], 68.1 µM; in [2], 41.9 µM; in [3], 32.6 µM; in test [4], greater than 100 µM. In addition, the TGI in test [5] is 61.7 µM; in [6], 29.7 µM; in test [7], 27.3 µM.

In the case of `N#Cc1c(-c2ccc([N+](=O)[O-])cc2)c(C#N)c(=O)n(NS(=O)(=O)c2ccccc2)c1O`, the TGI in [1], in test [8], in test [10], in test [2], in test [3] and in test [4] was greater than 100 µM in each case. The TGI in test [5], in [6] and in [7] was greater than 100 µM each time.

On to `O=[N+]([O-])c1ccc(-c2csc(=[N+]3CCCCC3)s2)cc1`, for which the TGI is greater than 100 µM in [1]; greater than 100 µM in test [2]; greater than 100 µM in test [3]; 62.6 µM in test [4]; greater than 100 µM in [5]; 18.3 µM in test [6]. Further, in test [7], the TGI was 5.58 µM.

As for `O=C(c1ccco1)N(C(=O)N1CCC(c2ccccc2)CC1)c1ccccc1`, the TGI in [1], in [8], in test [10], in test [2], in test [3] and in test [4] was greater than 100 µM each time. The TGI in [9], in test [5] and in test [7] was greater than 100 µM throughout.

Take `CC(C)=C/C(CC(O)(C(F)(F)F)C(F)(F)F)=N\O`: the TGI in [10], in test [2], in test [3], in test [4], in [9] and in test [5] was greater than 100 µM throughout. In addition, the TGI in test [7] was greater than 100 µM.

Consider `C=C(C)[C@H]1CC23C(=O)[C@@](C)(C[C@H]2C1(C)C)C(=O)C(C(=O)C(C)C)=C3O`, for which the TGI in test [1] amounted to 37.7 µM; in [8], 33 µM; in [10] it was 32.2 µM; in test [2] it was 30.4 µM; in test [3], 31.4 µM; in test [4] it was 40.8 µM. The figures for the TGI in test [9], in [6] and in test [7] were 58.1 µM, 36.8 µM and 23.1 µM, respectively.

`Cn1c(=O)cc(NNc2ccc(Cl)c(Cl)c2)[nH]c1=O`: the TGI amounted to 28.8 µM in test [1]; 25.4 µM in test [8]; 23.9 µM in [10]; 19.9 µM in [2]; 20.3 µM in [3]; 31.5 µM in test [4]. Further, the figures for the TGI in test [9], in test [5] and in [7] were 56 µM, greater than 100 µM and 35.8 µM, respectively.

Take `C=C1C[C@@H]2O[C@H]3[C@H]4[C@@H](C[C@@H](C)[C@@H](OC(C)=O)[C@H]42)[C@@H](C)CO[C@@]3(C)[C@H](OC(=O)CCCCCCC)CC1=O`: the TGI in [1] was found to be 32 µM; in test [8], 22.5 µM; in test [10], 36.7 µM; in test [2] it was 29.5 µM; in test [3] it was 29.1 µM; in test [4], 21.1 µM. The TGI came out at 39.7 µM in test [9], 42.6 µM in test [6] and 27.3 µM in [7].

Consider `CSc1ccc(/C=C2\N=C(c3ccccc3)N(c3nc4cc(Cl)c(F)cc4s3)C2=O)cc1`, for which the TGI in test [1] is 60.1 µM; in [8], greater than 100 µM; in test [10], greater than 100 µM; in [2] it was greater than 100 µM; in test [3] it was greater than 100 µM; in test [4], greater than 100 µM. Further, the TGI in test [9] was 97.3 µM; in [5] it was greater than 100 µM; in test [7], greater than 100 µM.

Turning to `CSc1nc(=O)c2nc(-c3cccs3)c(-c3cccs3)nc2n1C`, the TGI in test [8], in test [10], in test [2], in [3], in test [4] and in [9] was greater than 100 µM in each case. The TGI is greater than 100 µM in [5], 89.1 µM in test [6] and greater than 100 µM in test [7].

As for `Clc1ccc(/C(=C/c2ccccc2)Cn2ccnc2)cc1`, the TGI is 94 µM in test [8]; greater than 100 µM in test [10]; greater than 100 µM in [2]; 65.6 µM in [3]; greater than 100 µM in test [4]; greater than 100 µM in test [9]. In addition, the TGI was greater than 100 µM in test [5], 57.6 µM in [6] and 38.5 µM in test [7].
